We go through one compound from US4315009A, “Antisecretory guanidine derivatives and pharmaceutical compositions containing them” (Imperial Chemical Industries Limited, priority 1978, dated 1982).

This series can be described thus: overt toxicity in mice after intraperitoneal dosing. The format is in vivo. The conditions noted are these: intraperitoneally, 50 mg./kg.

Each structure is given as a SMILES string.

Take `C/N=C(\NC#N)Nc1cccc(-c2csc(N=C(N)N)n2)c1` [Example 2, 2-guanidino-4-[3-(2-cyano-3-methylguanidino)phenyl]thiazole]: the overt toxicity result is on record as “no overt toxicity”.
